Laboratory results reported in ChEMBL document CHEMBL5465560, “Selectivity Literature for EUbOPEN Chemogenomic Library” (2024).

How the values were obtained:
[1] = target: T1, Mitogen-activated protein kinase kinase kinase 2 (Homo sapiens) (UniProt Q9Y2U5); assay: Selectivity interaction (LanthaScreen Eu Kinase Binding Assay) EUB0001632a MAP3K2; details: at 10 µM
T1 sequence (whole entry): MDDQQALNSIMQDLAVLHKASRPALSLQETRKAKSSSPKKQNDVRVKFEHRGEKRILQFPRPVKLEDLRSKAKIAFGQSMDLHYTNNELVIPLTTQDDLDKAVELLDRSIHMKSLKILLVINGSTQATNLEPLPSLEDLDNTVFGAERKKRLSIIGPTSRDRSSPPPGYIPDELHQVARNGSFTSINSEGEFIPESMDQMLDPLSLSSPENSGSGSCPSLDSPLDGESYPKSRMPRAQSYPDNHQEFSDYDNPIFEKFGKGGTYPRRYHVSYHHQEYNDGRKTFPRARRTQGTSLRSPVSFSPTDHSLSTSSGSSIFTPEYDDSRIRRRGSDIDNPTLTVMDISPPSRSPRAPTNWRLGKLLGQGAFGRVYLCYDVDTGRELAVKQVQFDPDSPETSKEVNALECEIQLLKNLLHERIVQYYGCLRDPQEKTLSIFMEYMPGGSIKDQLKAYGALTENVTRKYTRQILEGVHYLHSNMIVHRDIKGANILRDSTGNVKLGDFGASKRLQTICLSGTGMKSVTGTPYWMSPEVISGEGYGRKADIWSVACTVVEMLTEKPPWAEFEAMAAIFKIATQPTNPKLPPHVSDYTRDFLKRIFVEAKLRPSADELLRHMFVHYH

[2] = target: Leukocyte tyrosine kinase receptor (Homo sapiens, UniProt P29376); assay: Selectivity interaction (KinomeScan (DiscoverX)) EUB0000666a LTK; details: at 10 µM
[3] = target: Phosphatidylinositol 4-phosphate 5-kinase type-1 gamma (Homo sapiens) (UniProt O60331); assay: Selectivity interaction (KinomeScan (DiscoverX)) EUB0000666a PIP5K1C; details: at 10 µM
[4] = target: Tyrosine-protein kinase Yes (Homo sapiens) (UniProt P07947); assay: Selectivity interaction (Upstate Kinase Profiler service (Millipore)) EUB0000056c YES1; details: at 1 µM
[5] = target: Citron Rho-interacting kinase (Homo sapiens) (UniProt O14578); details: at 10 µM
[6] = target: Angiopoietin-1 receptor (Homo sapiens) (UniProt Q02763); assay: Selectivity interaction (Kinase screening (Nanosyn)) EUB0000604a TEK
[7] = target: MAP kinase-activated protein kinase 3 (Homo sapiens) (UniProt Q16644); assay: Selectivity interaction (Kinase screening (Nanosyn)) EUB0000604a MAPKAPK3
[8] = target: Wee1-like protein kinase 2 (Homo sapiens) (UniProt P0C1S8); assay: Selectivity interaction (Ambit KINOMEscan and KiNATiv profiling in Jurkat cells) EUB0000090b WEE2; assay type: cell-based; details: at 1 µM
[9] = target: Serine/threonine-protein kinase NIM1 (Homo sapiens, UniProt Q8IY84); assay: Selectivity interaction (KinomeScan (DiscoverX)) EUB0000655a NIM1K; details: at 10 µM
[10] = target: Protein arginine N-methyltransferase 6 (Homo sapiens, UniProt Q96LA8); details: at 10 µM
[11] = target: Bromodomain-containing protein 4 (Homo sapiens, UniProt O60885); assay: Selectivity interaction (Bromodomain panel (DSF asssay)) EUB0000270b BRD4
[12] = target: T2, Serine/threonine-protein kinase Sgk1 (Homo sapiens) (UniProt O00141); assay: Selectivity interaction (KinomeScan (DiscoverX)) EUB0000229b SGK1; details: at 10 µM
T2 sequence (whole entry): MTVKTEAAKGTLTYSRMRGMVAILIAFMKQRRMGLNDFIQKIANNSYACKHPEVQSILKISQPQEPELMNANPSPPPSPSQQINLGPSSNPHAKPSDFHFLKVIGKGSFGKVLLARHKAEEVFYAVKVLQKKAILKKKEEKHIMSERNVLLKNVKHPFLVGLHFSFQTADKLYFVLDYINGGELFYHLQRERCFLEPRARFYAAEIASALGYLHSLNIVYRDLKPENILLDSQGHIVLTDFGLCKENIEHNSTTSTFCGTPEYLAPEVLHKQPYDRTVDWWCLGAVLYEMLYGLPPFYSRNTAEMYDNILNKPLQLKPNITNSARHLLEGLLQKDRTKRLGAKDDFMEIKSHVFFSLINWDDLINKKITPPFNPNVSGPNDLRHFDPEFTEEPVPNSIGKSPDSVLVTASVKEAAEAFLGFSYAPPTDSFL

[13] = target: T3, Tyrosine-protein kinase receptor TYRO3 (Homo sapiens) (UniProt Q06418); assay: Selectivity interaction (KinomeScan (DiscoverX)) EUB0000092b TYRO3; details: at 10 µM
T3 sequence (whole entry): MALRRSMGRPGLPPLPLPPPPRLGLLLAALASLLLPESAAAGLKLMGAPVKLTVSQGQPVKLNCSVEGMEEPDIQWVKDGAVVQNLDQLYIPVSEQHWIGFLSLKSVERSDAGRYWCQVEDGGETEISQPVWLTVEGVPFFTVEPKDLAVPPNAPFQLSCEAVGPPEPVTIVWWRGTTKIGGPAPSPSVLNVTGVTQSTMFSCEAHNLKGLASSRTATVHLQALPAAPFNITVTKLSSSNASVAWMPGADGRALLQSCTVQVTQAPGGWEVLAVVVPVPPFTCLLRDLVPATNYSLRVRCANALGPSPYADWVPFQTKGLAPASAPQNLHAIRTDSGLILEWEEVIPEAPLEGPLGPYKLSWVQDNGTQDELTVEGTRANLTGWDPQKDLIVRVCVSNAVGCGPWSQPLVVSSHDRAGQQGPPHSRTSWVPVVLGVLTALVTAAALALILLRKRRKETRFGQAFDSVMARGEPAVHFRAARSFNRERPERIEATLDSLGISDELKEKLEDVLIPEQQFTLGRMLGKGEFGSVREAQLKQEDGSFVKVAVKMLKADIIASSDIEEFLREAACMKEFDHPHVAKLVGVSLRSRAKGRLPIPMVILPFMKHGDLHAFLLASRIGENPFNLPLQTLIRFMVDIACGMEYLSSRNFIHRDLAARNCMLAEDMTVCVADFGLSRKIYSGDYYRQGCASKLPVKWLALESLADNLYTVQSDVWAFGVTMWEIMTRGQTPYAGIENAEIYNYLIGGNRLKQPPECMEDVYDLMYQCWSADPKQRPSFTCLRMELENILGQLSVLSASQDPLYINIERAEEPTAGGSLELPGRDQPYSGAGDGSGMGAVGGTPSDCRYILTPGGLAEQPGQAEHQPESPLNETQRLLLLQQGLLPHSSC

[14] = target: MAP kinase-interacting serine/threonine-protein kinase 1 (Homo sapiens) (UniProt Q9BUB5); assay: Selectivity interaction (KinomeScan (DiscoverX)) EUB0000618a MKNK1; details: at 10 µM
[15] = target: Mast/stem cell growth factor receptor Kit (Homo sapiens, UniProt P10721); assay: Selectivity interaction (KinomeScan (DiscoverX)) EUB0001619a KIT; details: at 1 µM
Chain of Mast/stem cell growth factor receptor Kit (P10721 whole entry): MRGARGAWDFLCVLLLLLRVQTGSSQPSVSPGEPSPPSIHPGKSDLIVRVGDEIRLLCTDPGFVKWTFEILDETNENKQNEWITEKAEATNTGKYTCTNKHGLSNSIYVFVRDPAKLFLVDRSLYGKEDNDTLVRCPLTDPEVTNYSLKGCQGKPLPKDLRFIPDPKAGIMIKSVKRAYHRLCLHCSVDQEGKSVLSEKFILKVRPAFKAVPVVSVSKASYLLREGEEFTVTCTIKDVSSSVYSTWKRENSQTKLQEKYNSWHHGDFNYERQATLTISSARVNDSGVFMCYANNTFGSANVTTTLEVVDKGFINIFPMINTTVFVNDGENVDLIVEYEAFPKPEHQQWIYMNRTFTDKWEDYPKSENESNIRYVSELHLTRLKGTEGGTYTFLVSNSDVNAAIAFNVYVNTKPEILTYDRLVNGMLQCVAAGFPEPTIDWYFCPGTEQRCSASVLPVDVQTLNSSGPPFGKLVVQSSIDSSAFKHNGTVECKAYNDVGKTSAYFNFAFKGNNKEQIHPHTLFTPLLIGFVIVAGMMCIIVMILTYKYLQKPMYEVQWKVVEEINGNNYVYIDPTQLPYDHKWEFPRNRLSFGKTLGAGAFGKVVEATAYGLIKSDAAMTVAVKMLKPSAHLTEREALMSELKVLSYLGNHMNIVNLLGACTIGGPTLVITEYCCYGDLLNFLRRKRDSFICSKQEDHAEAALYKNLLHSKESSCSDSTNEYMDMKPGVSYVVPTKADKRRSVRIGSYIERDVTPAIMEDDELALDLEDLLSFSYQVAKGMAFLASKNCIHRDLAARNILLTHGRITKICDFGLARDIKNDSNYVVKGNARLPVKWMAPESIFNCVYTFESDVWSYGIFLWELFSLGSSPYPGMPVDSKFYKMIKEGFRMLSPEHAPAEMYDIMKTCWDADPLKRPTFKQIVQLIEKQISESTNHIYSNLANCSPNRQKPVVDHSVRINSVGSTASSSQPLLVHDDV

Chain of Wee1-like protein kinase 2 (Homo sapiens) (P0C1S8 whole entry, looked up): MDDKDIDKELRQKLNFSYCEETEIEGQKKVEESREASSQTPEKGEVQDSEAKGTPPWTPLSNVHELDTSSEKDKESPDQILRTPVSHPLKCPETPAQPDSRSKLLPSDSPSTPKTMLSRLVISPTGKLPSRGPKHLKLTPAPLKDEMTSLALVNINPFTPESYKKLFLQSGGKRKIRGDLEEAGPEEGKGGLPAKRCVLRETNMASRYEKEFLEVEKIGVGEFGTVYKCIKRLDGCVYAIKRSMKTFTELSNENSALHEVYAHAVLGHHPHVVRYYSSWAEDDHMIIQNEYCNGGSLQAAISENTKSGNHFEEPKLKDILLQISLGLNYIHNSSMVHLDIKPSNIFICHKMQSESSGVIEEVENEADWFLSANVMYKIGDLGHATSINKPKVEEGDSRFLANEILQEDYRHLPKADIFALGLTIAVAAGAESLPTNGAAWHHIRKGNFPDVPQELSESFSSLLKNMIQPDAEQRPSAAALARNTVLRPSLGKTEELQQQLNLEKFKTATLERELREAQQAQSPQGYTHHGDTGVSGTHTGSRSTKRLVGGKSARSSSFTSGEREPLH
Chain of Serine/threonine-protein kinase NIM1 (Q8IY84 whole entry): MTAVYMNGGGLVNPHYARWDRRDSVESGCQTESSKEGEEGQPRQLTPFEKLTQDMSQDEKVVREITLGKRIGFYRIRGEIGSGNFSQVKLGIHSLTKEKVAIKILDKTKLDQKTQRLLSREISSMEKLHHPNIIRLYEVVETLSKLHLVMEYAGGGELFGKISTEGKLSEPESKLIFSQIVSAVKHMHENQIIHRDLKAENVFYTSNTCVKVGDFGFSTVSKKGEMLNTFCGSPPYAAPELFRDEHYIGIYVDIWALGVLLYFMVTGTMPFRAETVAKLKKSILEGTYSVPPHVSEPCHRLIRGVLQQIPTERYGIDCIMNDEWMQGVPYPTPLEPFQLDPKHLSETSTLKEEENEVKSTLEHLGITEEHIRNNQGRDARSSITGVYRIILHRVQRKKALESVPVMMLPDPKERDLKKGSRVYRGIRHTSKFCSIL
Chain of Citron Rho-interacting kinase (Homo sapiens) (O14578 whole entry): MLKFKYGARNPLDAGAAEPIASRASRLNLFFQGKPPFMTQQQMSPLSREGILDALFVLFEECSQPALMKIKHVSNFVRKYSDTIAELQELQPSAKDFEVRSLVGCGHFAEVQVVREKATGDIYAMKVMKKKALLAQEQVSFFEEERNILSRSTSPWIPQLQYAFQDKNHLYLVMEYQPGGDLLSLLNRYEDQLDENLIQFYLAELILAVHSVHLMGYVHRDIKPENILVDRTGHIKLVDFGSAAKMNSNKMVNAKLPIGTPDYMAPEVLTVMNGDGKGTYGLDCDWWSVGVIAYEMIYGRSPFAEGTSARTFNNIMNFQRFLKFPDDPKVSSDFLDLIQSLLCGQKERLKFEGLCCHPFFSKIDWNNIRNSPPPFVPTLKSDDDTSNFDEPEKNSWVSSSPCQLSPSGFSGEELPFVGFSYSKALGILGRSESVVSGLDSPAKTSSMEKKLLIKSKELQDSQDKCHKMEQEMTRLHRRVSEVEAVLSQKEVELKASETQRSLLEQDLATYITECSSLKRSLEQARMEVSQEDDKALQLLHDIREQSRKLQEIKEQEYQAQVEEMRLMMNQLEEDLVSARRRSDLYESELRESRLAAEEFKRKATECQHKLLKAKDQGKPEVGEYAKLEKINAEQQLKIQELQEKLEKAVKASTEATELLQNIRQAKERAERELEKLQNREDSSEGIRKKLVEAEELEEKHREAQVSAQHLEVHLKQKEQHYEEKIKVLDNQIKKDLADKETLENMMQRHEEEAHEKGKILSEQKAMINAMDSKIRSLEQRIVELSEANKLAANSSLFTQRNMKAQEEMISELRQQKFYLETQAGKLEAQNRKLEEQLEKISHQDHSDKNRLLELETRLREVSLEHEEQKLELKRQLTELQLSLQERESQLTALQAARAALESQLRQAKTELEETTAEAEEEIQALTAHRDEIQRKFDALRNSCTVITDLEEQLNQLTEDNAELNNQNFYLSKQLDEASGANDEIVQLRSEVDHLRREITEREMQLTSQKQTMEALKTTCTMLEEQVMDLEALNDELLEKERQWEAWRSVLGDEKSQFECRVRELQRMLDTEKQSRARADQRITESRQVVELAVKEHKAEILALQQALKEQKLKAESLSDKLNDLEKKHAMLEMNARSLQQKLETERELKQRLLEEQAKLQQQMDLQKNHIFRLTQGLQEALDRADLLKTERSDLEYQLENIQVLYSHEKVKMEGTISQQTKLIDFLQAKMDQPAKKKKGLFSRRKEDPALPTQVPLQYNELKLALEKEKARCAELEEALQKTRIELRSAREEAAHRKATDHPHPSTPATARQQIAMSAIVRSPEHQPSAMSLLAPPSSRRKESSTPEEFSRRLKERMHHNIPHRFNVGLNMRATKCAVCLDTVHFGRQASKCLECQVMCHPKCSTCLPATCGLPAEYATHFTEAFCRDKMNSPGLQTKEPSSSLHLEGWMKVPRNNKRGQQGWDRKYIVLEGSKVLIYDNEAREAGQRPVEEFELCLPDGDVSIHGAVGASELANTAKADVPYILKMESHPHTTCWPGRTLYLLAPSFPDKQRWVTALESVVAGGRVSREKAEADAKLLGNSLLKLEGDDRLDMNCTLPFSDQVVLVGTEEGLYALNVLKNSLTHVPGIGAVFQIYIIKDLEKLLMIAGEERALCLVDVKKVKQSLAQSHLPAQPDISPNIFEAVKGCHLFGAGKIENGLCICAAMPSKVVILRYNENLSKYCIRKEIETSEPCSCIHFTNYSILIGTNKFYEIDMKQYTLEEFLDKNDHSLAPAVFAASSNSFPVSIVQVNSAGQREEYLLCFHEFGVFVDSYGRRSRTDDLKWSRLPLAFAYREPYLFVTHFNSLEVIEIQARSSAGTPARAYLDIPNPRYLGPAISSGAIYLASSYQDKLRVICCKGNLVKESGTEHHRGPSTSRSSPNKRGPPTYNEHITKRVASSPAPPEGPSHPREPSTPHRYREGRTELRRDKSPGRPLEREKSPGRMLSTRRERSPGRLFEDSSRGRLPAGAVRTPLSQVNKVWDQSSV
Chain of MAP kinase-activated protein kinase 3 (Homo sapiens) (Q16644 whole entry, looked up): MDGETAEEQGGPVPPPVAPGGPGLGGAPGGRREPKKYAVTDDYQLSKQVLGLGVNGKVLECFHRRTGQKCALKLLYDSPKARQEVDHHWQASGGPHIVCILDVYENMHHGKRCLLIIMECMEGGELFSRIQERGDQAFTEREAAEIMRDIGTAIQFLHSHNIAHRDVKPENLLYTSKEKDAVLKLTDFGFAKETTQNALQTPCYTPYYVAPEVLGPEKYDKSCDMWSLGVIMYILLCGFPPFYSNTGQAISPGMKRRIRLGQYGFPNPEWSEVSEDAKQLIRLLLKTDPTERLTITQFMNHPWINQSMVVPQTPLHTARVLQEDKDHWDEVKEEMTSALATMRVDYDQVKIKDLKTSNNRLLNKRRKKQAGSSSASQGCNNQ
Chain of Tyrosine-protein kinase Yes (Homo sapiens) (P07947 2-543 limits assumed): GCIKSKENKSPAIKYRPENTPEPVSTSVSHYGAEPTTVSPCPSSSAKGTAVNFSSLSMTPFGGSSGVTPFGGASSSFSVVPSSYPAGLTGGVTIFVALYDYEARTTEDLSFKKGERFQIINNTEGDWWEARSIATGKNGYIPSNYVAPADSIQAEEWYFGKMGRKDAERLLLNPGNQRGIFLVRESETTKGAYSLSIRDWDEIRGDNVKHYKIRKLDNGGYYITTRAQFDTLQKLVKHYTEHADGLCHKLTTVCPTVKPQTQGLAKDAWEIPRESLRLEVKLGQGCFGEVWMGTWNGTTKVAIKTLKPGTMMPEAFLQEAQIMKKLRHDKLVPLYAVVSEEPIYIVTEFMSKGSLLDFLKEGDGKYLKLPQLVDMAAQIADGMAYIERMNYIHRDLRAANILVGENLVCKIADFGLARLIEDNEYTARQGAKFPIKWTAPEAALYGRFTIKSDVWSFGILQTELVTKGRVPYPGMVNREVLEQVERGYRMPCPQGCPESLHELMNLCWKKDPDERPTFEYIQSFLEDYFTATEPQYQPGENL

`Cn1cc(-n2cnc3c(NCc4nc5cc(Cl)c(Cl)cc5[nH]4)nc(N4CCOCC4)nc32)cn1` gave a % of inhibition [1] of -3.79%.
With `O=C(NOC[C@H](O)CO)c1ccc(F)c(F)c1Nc1ccc(I)cc1F` the % of control [2] was 100% and the % of control [3] was 100%.
`Cc1ccc(-c2ccc3c(ccc4sc5c(c43)NC[C@@H](C)NC5=O)n2)cn1` was tested, and the % of inhibition [4] was 31%.
For `CCN(CC)CCCCNc1ncc2cc(-c3cc(OC)cc(OC)c3)c(NC(=O)NC(C)(C)C)nc2n1`, the % of control [5] was 100%.
Compound `Cc1cnc(Nc2ccc(F)cc2Cl)nc1-c1c[nH]c(C(=O)N[C@H](CO)c2cccc(Cl)c2)c1` has a % of inhibition [6] of 0% and a % of inhibition [7] of 5%.
`CN(C)C/C=C/C(=O)Nc1ccc(C(=O)N2CCCC(Nc3ncc(Cl)c(-c4c[nH]c5ccccc45)n3)C2)cc1` (stereo not given) showed a % of control [8] of 97%.
`CN(C)CCOc1ccc(-c2nc(-c3ccncc3)c(-c3ccc4c(c3)CC/C4=N\O)[nH]2)cc1` was tested, and the % of control [9] was 91%.
Work on `CNCCN1CCC(c2cc(CN(C)C(=O)c3cccc(Oc4ccccc4)c3)ccn2)CC1` yielded a % activity [10] of 42%.
In the case of `Cc1cc(CN)cc(C)c1-c1ncn(C)c1-c1cncn1C`, the dTM [11] is reported as -0.92 K.
In the case of `COc1cc(N(C)c2ccnc3ccc(C(F)(F)F)cc23)cc(OC)c1OC`, the % binding [12] is reported as 97%.
`CCC(=O)N1CCN(c2ccc(-n3c(=O)ccc4cnc5ccc(-c6cnc7ccccc7c6)cc5c43)cc2C(F)(F)F)CC1` was tested, and the % of control [13] was 31%.
With `O[C@H]1CC[C@H](Nc2ncc3nc(Nc4c(F)cc(F)cc4F)n([C@H]4CCOC4)c3n2)CC1` the % of control [14] was 94%.
`N#Cc1cccc(-c2c[nH]c3ncnc(N4CCOCC4)c23)c1` was tested, and the % of control [15] was 100%.
